Values joined by “and” are separate entries in the source; they are usually repeats but may differ in a detail not shown here. Identical values can stand only once.
Legend:
Experiment in all cases: radiometric filter-binding kinase assay, Kinase HotSpot
Details in all cases: compound 0.5 µM; ATP 10 µM
BTK (human) = BTK (human) (UniProt Q06187)
CSNK2A1 (human) = CSNK2A1 (human) (UniProt P68400)
SIK2 (human) = SIK2 (human) (UniProt Q9H0K1)
CSNK1G2 (human) = CSNK1G2 (human) (UniProt P78368)
LYN (human) = LYN (human) (UniProt P07948)
MAP4K4 (human) = MAP4K4 (human) (UniProt O95819)
DAPK2 (human) = DAPK2 (human) (UniProt Q9UIK4)
STK17A (human) = STK17A (human) (UniProt Q9UEE5)
MAP4K2 (human) = MAP4K2 (human) (UniProt Q12851)
[1] = test system: MKNK1 (human), Q9BUB5 [T385D; 165-205 del]
STK24 (human) = STK24 (human) (UniProt Q9Y6E0)
CDK4 CCND1 (human) = CDK4 CCND1 (human) (UniProt P24385+P11802)
RPS6KB2 (human) = RPS6KB2 (human) (UniProt Q9UBS0)
NEK7 (human) = NEK7 (human) (UniProt Q8TDX7)
HIPK1 (human) = HIPK1 (human) (UniProt Q86Z02)
STK25 (human) = STK25 (human) (UniProt O00506)
MAP3K2 (human) = MAP3K2 (human) (UniProt Q9Y2U5)
PRKCB1 (human) = PRKCB1 (human) (UniProt P05771)
PRKACA (human) = PRKACA (human) (UniProt P17612)
ROS1 (human) = ROS1 (human) (UniProt P08922)
PRKCH (human) = PRKCH (human) (UniProt P24723)
SRPK2 (human) = SRPK2 (human) (UniProt P78362)
MAPK8 (human) = MAPK8 (human) (UniProt P45983)
MARK3 (human) = MARK3 (human) (UniProt P27448)
WNK2 (human) = WNK2 (human) (UniProt Q9Y3S1)
NEK3 (human) = NEK3 (human) (UniProt P51956)
FGR (human) = FGR (human) (UniProt P09769)
SRMS (human) = SRMS (human) (UniProt Q9H3Y6)
NTRK2 (human) = NTRK2 (human) (UniProt Q16620)
TAOK2 (human) = TAOK2 (human) (UniProt Q9UL54)
MINK1 (human) = MINK1 (human) (UniProt Q8N4C8)
LRRK2 (human) = LRRK2 (human) (UniProt Q5S007)
DYRK1A (human) = DYRK1A (human) (UniProt Q13627)
CHEK1 (human) = CHEK1 (human) (UniProt O14757)
ULK2 (human) = ULK2 (human) (UniProt Q8IYT8)
GSK3A (human) = GSK3A (human) (UniProt P49840)
NEK6 (human) = NEK6 (human) (UniProt Q9HC98)
[2] = test system: MAP2K6 (human), P52564 [S207E/T211E]
MARK4 (human) = MARK4 (human) (UniProt Q96L34)
ADRBK1 (human) = ADRBK1 (human) (UniProt P25098)
IRAK4 (human) = IRAK4 (human) (UniProt Q9NWZ3)
ACVR1 (human) = ACVR1 (human) (UniProt Q04771)

Sequence of LYN (human) (P07948 whole entry, looked up): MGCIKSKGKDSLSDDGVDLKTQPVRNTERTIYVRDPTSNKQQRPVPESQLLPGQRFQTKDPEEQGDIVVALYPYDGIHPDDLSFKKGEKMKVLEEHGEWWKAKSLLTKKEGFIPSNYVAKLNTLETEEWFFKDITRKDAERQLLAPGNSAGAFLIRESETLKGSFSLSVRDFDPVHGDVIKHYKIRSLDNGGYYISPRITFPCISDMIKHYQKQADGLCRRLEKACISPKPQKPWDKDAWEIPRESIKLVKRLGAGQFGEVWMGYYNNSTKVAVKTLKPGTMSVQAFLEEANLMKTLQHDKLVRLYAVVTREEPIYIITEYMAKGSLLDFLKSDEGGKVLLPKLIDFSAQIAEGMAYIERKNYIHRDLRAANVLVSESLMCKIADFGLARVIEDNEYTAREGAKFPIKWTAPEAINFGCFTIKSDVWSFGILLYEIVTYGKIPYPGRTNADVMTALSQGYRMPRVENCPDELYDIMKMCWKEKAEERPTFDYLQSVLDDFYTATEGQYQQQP
Sequence of PRKCH (human) (P24723 whole entry, looked up): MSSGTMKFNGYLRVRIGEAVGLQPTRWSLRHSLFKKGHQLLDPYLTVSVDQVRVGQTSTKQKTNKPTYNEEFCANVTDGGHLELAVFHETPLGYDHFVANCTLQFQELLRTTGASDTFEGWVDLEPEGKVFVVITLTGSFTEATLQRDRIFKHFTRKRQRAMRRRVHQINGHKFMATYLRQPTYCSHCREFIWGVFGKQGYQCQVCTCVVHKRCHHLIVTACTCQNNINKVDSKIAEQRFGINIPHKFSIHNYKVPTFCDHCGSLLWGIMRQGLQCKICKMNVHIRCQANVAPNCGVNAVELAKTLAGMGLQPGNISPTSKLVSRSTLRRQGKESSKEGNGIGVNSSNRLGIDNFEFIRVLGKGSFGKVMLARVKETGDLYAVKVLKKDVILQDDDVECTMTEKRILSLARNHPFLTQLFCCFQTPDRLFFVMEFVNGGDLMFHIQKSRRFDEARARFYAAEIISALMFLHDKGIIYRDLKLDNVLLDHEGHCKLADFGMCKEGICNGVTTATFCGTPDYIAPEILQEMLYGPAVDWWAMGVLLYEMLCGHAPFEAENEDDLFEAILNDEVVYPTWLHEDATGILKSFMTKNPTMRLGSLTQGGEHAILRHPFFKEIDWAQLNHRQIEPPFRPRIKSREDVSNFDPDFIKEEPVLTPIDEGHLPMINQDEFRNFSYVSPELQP
Sequence of CSNK2A1 (human) (P68400 whole entry, looked up): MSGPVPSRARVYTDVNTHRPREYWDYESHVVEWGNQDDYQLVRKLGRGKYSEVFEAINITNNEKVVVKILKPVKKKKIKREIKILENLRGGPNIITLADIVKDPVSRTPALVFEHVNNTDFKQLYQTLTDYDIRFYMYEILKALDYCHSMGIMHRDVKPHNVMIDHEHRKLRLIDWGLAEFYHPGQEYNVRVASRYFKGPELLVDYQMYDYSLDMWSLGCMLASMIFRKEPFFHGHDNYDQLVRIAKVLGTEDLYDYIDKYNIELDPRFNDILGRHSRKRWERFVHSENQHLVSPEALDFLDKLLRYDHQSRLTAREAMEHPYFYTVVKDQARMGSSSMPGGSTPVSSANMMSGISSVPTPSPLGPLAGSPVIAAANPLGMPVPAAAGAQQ
Sequence of NEK7 (human) (Q8TDX7 whole entry, looked up): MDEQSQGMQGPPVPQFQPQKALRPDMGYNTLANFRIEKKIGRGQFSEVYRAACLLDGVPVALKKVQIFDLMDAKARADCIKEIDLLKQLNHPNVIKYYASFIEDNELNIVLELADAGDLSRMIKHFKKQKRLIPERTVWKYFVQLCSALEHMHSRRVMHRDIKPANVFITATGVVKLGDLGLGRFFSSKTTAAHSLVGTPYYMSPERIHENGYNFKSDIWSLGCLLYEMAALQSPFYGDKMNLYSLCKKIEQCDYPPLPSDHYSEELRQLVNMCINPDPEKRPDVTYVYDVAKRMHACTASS
Sequence of STK17A (human) (Q9UEE5 whole entry, looked up): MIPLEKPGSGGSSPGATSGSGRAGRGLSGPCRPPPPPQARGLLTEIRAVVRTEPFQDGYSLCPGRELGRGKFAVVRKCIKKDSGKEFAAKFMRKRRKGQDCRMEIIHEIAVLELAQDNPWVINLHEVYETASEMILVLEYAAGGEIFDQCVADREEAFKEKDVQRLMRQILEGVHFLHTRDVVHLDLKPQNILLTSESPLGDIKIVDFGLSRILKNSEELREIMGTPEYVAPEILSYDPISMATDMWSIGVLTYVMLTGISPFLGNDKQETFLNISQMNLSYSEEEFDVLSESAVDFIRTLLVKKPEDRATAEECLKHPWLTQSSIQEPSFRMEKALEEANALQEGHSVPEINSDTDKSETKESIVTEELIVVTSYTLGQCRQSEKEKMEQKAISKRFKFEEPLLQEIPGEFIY
Sequence of CHEK1 (human) (O14757 whole entry, looked up): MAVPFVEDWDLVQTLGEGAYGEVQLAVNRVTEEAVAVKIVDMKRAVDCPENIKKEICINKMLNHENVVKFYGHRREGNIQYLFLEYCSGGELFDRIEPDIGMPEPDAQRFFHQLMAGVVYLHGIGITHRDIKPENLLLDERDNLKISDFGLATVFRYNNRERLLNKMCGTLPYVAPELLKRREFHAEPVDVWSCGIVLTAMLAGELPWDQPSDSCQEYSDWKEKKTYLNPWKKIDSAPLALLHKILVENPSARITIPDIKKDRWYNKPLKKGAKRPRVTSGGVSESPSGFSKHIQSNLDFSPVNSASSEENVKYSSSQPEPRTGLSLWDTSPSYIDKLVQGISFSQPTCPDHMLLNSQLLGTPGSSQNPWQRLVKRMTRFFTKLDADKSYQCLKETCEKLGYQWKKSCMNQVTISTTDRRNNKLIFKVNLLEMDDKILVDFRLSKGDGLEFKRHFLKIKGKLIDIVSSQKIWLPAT
Sequence of GSK3A (human) (P49840 whole entry, looked up): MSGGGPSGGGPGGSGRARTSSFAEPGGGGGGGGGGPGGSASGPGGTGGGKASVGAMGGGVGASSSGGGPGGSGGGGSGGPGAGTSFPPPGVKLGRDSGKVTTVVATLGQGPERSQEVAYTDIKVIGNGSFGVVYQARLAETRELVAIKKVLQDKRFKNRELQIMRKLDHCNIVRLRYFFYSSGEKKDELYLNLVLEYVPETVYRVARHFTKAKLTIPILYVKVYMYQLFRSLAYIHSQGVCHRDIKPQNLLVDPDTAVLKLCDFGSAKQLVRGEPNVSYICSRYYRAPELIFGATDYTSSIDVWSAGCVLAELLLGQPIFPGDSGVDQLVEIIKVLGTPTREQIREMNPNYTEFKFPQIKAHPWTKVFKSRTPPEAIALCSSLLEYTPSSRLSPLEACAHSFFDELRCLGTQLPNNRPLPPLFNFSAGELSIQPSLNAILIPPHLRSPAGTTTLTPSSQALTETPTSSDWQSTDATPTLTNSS
Sequence of SIK2 (human) (Q9H0K1 whole entry, looked up): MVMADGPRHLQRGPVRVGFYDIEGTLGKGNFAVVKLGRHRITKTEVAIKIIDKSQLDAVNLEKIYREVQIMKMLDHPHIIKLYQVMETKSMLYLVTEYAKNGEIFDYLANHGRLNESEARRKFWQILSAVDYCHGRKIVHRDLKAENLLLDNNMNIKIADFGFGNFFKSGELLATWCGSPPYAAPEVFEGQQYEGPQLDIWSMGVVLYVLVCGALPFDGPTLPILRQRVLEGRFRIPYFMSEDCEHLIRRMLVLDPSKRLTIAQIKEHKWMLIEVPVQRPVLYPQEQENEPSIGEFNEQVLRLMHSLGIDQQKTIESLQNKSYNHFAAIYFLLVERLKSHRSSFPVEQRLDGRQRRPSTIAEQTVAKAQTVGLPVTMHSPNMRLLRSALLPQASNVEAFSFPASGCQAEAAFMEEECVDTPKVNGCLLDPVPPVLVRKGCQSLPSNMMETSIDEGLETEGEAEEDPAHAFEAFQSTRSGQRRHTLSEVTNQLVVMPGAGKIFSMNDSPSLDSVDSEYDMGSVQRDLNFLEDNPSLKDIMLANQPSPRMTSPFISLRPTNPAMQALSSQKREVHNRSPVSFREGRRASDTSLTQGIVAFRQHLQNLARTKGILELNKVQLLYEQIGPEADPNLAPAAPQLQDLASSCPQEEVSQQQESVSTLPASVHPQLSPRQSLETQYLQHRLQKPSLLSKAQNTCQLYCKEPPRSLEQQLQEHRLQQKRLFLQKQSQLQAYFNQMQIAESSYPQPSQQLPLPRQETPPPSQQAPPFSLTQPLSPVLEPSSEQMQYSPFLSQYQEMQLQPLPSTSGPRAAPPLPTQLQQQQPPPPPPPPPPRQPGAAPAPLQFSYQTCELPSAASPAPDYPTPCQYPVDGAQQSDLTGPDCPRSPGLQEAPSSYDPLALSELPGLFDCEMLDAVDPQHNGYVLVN
Sequence of IRAK4 (human) (Q9NWZ3 whole entry, looked up): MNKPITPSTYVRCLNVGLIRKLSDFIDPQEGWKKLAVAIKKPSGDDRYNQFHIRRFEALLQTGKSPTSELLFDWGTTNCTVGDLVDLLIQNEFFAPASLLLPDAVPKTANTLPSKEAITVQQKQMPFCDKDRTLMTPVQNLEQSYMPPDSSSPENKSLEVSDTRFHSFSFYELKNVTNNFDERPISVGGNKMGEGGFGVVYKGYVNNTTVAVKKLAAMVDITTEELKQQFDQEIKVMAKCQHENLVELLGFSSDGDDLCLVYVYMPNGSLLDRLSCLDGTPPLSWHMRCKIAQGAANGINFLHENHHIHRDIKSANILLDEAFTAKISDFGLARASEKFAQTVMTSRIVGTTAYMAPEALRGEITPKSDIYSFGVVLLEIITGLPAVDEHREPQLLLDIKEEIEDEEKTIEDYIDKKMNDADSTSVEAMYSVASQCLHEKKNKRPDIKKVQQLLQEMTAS
Sequence of MAP2K6 (human), P52564 [S207E/T211E] (P52564 whole entry S207E/T211E, looked up): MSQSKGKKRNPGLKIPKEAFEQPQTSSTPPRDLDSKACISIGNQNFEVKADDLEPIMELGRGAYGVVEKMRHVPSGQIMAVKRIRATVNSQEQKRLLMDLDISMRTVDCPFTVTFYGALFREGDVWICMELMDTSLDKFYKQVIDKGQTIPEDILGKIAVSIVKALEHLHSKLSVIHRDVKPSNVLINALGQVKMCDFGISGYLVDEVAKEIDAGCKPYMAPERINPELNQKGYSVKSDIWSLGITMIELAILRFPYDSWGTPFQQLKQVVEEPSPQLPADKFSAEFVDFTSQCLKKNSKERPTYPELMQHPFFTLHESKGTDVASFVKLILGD

Compound `Cn1c2ccccc2c2c3c(c4c5ccccc5n(CCC#N)c4c21)CNC3=O` has a residual activity (BTK (human)) of 22%, a residual activity (CSNK2A1 (human)) of 73.1% and a residual activity (SIK2 (human)) of 54.5%. For the same compound, the residual activity (CSNK1G2 (human)) was 105%, the residual activity (LYN (human)) was 90.3% and 94.4% and the residual activity (MAP4K4 (human)) was 0.433%. It also gave a residual activity (DAPK2 (human)) of 84.4%, a residual activity (STK17A (human)) of 85.3% and a residual activity (MAP4K2 (human)) of 5.68%. It also gave a residual activity [1] of 75.2%, a residual activity (STK24 (human)) of 62.8% and a residual activity (CDK4 CCND1 (human)) of 27.5%. The residual activity (RPS6KB2 (human)) was 21.6%, the residual activity (NEK7 (human)) was 97% and the residual activity (HIPK1 (human)) was 81.1%. The residual activity (STK25 (human)) was 83.9%, the residual activity (MAP3K2 (human)) was 2.96% and the residual activity (PRKCB1 (human)) was 18.7%. It also gave a residual activity (PRKACA (human)) of 83.7%, a residual activity (ROS1 (human)) of 1.18% and a residual activity (PRKCH (human)) of 35.3%. For the same compound, the residual activity (SRPK2 (human)) was 95%, the residual activity (MAPK8 (human)) was 78.7% and the residual activity (MARK3 (human)) was 13.9%. It also gave a residual activity (WNK2 (human)) of 103%, a residual activity (NEK3 (human)) of 133% and a residual activity (FGR (human)) of 70.7%. The residual activity (SRMS (human)) was 96.6%, the residual activity (NTRK2 (human)) was 0.815% and the residual activity (TAOK2 (human)) was 13.3%. For the same compound, the residual activity (MINK1 (human)) was 2.48%, the residual activity (LRRK2 (human)) was 30.5% and the residual activity (DYRK1A (human)) was 46.3%. It also gave a residual activity (CHEK1 (human)) of 7.95%, a residual activity (ULK2 (human)) of 92.9% and a residual activity (GSK3A (human)) of 35.6%. For the same compound, the residual activity (NEK6 (human)) was 103%, the residual activity [2] was 21.1% and the residual activity (MARK4 (human)) was 10.8%. It also gave a residual activity (ADRBK1 (human)) of 103%, a residual activity (IRAK4 (human)) of 63.5% and a residual activity (ACVR1 (human)) of 155%.

With `O=C1C(Cl)=C(N2C(=O)CCC2=O)C(=O)c2ccccc21` the residual activity (BTK (human)) was 103%, the residual activity (CSNK2A1 (human)) was 99.3% and the residual activity (SIK2 (human)) was 92.8%. The residual activity (CSNK1G2 (human)) was 99.3%, the residual activity (LYN (human)) was 93.5% and 97% and the residual activity (MAP4K4 (human)) was 93.7%. The residual activity (DAPK2 (human)) was 133%, the residual activity (STK17A (human)) was 101% and the residual activity (MAP4K2 (human)) was 89.6%. It also gave a residual activity [1] of 135%, a residual activity (STK24 (human)) of 87% and a residual activity (CDK4 CCND1 (human)) of 103%. For the same compound, the residual activity (RPS6KB2 (human)) was 102%, the residual activity (NEK7 (human)) was 95.4% and the residual activity (HIPK1 (human)) was 104%. It also gave a residual activity (STK25 (human)) of 107%, a residual activity (MAP3K2 (human)) of 108% and a residual activity (PRKCB1 (human)) of 92.1%. The residual activity (PRKACA (human)) was 88.8%, the residual activity (ROS1 (human)) was 95.8% and the residual activity (PRKCH (human)) was 93.1%. It also gave a residual activity (SRPK2 (human)) of 100%, a residual activity (MAPK8 (human)) of 122% and a residual activity (MARK3 (human)) of 87.8%. It also gave a residual activity (WNK2 (human)) of 108%, a residual activity (NEK3 (human)) of 102% and a residual activity (FGR (human)) of 102%. For the same compound, the residual activity (SRMS (human)) was 108%, the residual activity (NTRK2 (human)) was 104% and the residual activity (TAOK2 (human)) was 99.2%. The residual activity (MINK1 (human)) was 95.6%, the residual activity (LRRK2 (human)) was 103% and the residual activity (DYRK1A (human)) was 99.1%. The residual activity (CHEK1 (human)) was 111%, the residual activity (ULK2 (human)) was 108% and the residual activity (GSK3A (human)) was 99.8%. For the same compound, the residual activity (NEK6 (human)) was 104%, the residual activity [2] was 107% and the residual activity (MARK4 (human)) was 99.6%. It also gave a residual activity (ADRBK1 (human)) of 105%, a residual activity (IRAK4 (human)) of 89.1% and a residual activity (ACVR1 (human)) of 96.9%.

With `Cc1cccc(-c2nc(C(C)(C)C)[nH]c2-c2ccc3c(c2)OCO3)n1` the residual activity (BTK (human)) was 118%, the residual activity (CSNK2A1 (human)) was 98% and the residual activity (SIK2 (human)) was 91.4%. For the same compound, the residual activity (CSNK1G2 (human)) was 104%, the residual activity (LYN (human)) was 82.8% and 99.2% and the residual activity (MAP4K4 (human)) was 86.9%. For the same compound, the residual activity (DAPK2 (human)) was 102%, the residual activity (STK17A (human)) was 84.1% and the residual activity (MAP4K2 (human)) was 102%. It also gave a residual activity [1] of 86.8%, a residual activity (STK24 (human)) of 100% and a residual activity (CDK4 CCND1 (human)) of 105%. For the same compound, the residual activity (RPS6KB2 (human)) was 102%, the residual activity (NEK7 (human)) was 106% and the residual activity (HIPK1 (human)) was 101%. The residual activity (STK25 (human)) was 104%, the residual activity (MAP3K2 (human)) was 99.9% and the residual activity (PRKCB1 (human)) was 82.5%. For the same compound, the residual activity (PRKACA (human)) was 102%, the residual activity (ROS1 (human)) was 101% and the residual activity (PRKCH (human)) was 104%. The residual activity (SRPK2 (human)) was 95.8%, the residual activity (MAPK8 (human)) was 95.7% and the residual activity (MARK3 (human)) was 73.9%. The residual activity (WNK2 (human)) was 105%, the residual activity (NEK3 (human)) was 85.6% and the residual activity (FGR (human)) was 99.9%. The residual activity (SRMS (human)) was 102%, the residual activity (NTRK2 (human)) was 96.4% and the residual activity (TAOK2 (human)) was 87.6%. For the same compound, the residual activity (MINK1 (human)) was 98.4%, the residual activity (LRRK2 (human)) was 103% and the residual activity (DYRK1A (human)) was 98.4%. For the same compound, the residual activity (CHEK1 (human)) was 89.8%, the residual activity (ULK2 (human)) was 75.4% and the residual activity (GSK3A (human)) was 93%. The residual activity (NEK6 (human)) was 109%, the residual activity [2] was 105% and the residual activity (MARK4 (human)) was 99.7%. The residual activity (ADRBK1 (human)) was 105%, the residual activity (IRAK4 (human)) was 86.8% and the residual activity (ACVR1 (human)) was 96.4%.

Compound `Ic1cccc(CSc2nnc(-c3ccncc3)o2)c1` has a residual activity (BTK (human)) of 95.6%, a residual activity (CSNK2A1 (human)) of 97.3% and a residual activity (SIK2 (human)) of 100%. For the same compound, the residual activity (CSNK1G2 (human)) was 99.2%, the residual activity (LYN (human)) was 103% and 99.6% and the residual activity (MAP4K4 (human)) was 97.4%. For the same compound, the residual activity (DAPK2 (human)) was 108%, the residual activity (STK17A (human)) was 95.8% and the residual activity (MAP4K2 (human)) was 112%. It also gave a residual activity [1] of 109%, a residual activity (STK24 (human)) of 108% and a residual activity (CDK4 CCND1 (human)) of 96.3%. For the same compound, the residual activity (RPS6KB2 (human)) was 103%, the residual activity (NEK7 (human)) was 102% and the residual activity (HIPK1 (human)) was 105%. It also gave a residual activity (STK25 (human)) of 96.2%, a residual activity (MAP3K2 (human)) of 106% and a residual activity (PRKCB1 (human)) of 97.5%. For the same compound, the residual activity (PRKACA (human)) was 94.6%, the residual activity (ROS1 (human)) was 99.3% and the residual activity (PRKCH (human)) was 99.1%. The residual activity (SRPK2 (human)) was 97.4%, the residual activity (MAPK8 (human)) was 84.7% and the residual activity (MARK3 (human)) was 124%. The residual activity (WNK2 (human)) was 99.5%, the residual activity (NEK3 (human)) was 86.9% and the residual activity (FGR (human)) was 90.9%. For the same compound, the residual activity (SRMS (human)) was 93.4%, the residual activity (NTRK2 (human)) was 91.4% and the residual activity (TAOK2 (human)) was 105%. It also gave a residual activity (MINK1 (human)) of 90.2%, a residual activity (LRRK2 (human)) of 91.9% and a residual activity (DYRK1A (human)) of 96.4%. For the same compound, the residual activity (CHEK1 (human)) was 96.3%, the residual activity (ULK2 (human)) was 111% and the residual activity (GSK3A (human)) was 42.7%. The residual activity (NEK6 (human)) was 95.4%, the residual activity [2] was 97% and the residual activity (MARK4 (human)) was 86.8%. It also gave a residual activity (ADRBK1 (human)) of 99.9%, a residual activity (IRAK4 (human)) of 105% and a residual activity (ACVR1 (human)) of 97.4%.

Source: the kinase profiling compilation of Christmann-Franck et al. (2016)
